Assay results: patent publication US7220784B2, “Substituted stilbenes and their reactions” (priority 2000, dated 2007)
Where two headings read alike, the source gives them in different places.

How the values were obtained:
[1] = system: A2780; test: Cytotoxicity/growth inhibition assay (MTT), A2780; format: cell-based
Procedure: (§1) The following assays (1–5) were carried out as described in our paper (Woods, et al, British Journal of Cancer, 71, 705–711 (1995)). In addition to the cell lines described in this paper, other established human cell lines (K562, HUVEC, H460, BE, H529, and HT29) were used in the cytotoxicity/growth inhibition assay. • (1) Inhibition of tubulin assembly. The figure quoted is the concentration required to reduce assembly of tubulin by 50%. Tubulin assembly is monitored by light scatter/absorption at 350 nm.
(§2) (2) Competition for the colchicine binding site on tubulin. The figure quoted represents the % of ^3H-colchicine bound following co-incubation of test compound and ^3H-cochicine with isolated tubulin. Where ester pro-drugs were used the experiments were carried out in the presence and absence of porcine liver esterase. • (3) Cytotoxicity/growth inhibition assay. This was carried out by the MTT assay. • (4) Permeability (shape-change) assay in endothelial cells. This was carried out using a method based on that of Watts et al. (Anticancer Res., 17, 71–75, (1997)). This involved the diffusion of a fluorescently labelled dextran through a barrier of endothelial cells (HUVEC) grown to confluence on a porous membrane. The effect of agents to alter the shape of these cells results in an increase in the permeability of the cells to the dye. The figure represents the increase in permeability over control cultures when drug is added (30 minutes, 1 mM.). • (5) Experiments to study the anti-vascular effects of these agents were carried out as described previously by our group. (Zhao et al, European Journal of Nuclear Medicine, 26, 231–238 (1999)). The anti-vascular effects of the agents were monitored by either positron emission tomography (PET) or by histologogical examination following treatment of mice bearing T50:80 murine breast tumours, or H460 human lung tumours. • (6) Anti-tumour efficacy of agents was determined in xenografts of H460 human lung cancer. Animals (n=5) were trated either with 5 daily injections and tumour size measured with time following treatment. • (7) The pharmacokinetic profile of agents was determined in mice following injection with drug. Blood was taken at various times following treatment and analysed by HPLC with UV detection. The HPLC conditions were isocratic using a 5 micron C18 BDS column (150×4.6) ad eluting with 75% MeOH in water with a detection wavelength of 290 nm. […] (AND(P)H:quinone oxidoreductace, EC 1.6.99.2). DT-diaphorase is an enzyme over-expressed in a number of human tumours. […] This two-electron reducing enzyme can be used to selectively activate prodrugs within cancers which over-express the enzyme.

[2] = system: A2780/ADR; test: Cytotoxicity/growth inhibition assay (MTT), A2780/ADR; format: cell-based
Procedure: as §1, §2

[3] = system: T1, tubulin; test: Inhibition of tubulin assembly; format: biochemical; conditions: concentration required to reduce assembly of tubulin by 50%
T1 construct: other: concentration required to reduce assembly of tubulin by 50%
Procedure: as §1

[4] = system: colchicine binding site on tubulin; test: Competition for the colchicine binding site on tubulin; conditions: % of 3H-colchicine bound; with porcine liver esterase
Procedure: as §2, with “This was carried out using a method based on that of Watts et al. (Anticancer Res., 17, 71–75, (1997)).” left out, “(Zhao et al, European Journal of Nuclear Medicine, 26, 231–238 (1999)).” left out, “detection.” for “detection. The HPLC conditions were isocratic using a 5 micron C18 BDS column (150×4.6) ad eluting with 75% MeOH in water with a detection wavelength of 290 nm.”

[5] = system: P388 murine leukaemia cell line; test: Cytotoxicity/growth inhibition assay (MTT), P388; format: cell-based; conditions: Mus musculus, P388, MTT
Summary of the method: (§3)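 Growth inhibition of P388 murine and K562 human leukaemia cells measured by MTT assay.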

[6] = system: HUVEC; test: Growth inhibition studies using HUVEC; format: cell-based, human; conditions: Homo sapiens, HUVEC
Procedure: as §1, §2

[7] = system: K562 human myelogeneous leukaemia cell line; test: Cytotoxicity/growth inhibition assay (MTT), K562; format: cell-based
Summary of the method: as §3

[8] = system: tubulin; test: MA IC50 (Tables 12-26, abbreviation not defined); format: biochemical
[9] = system: tubulin; test: CD IC50 (Tables 12-26, abbreviation not defined); format: binding
[10] = system: K562; test: K562 cell cycle analysis; format: cell-based, human; conditions: K562; for % of cells in G0–G1 / % of cells in G2-M / % of cells in S phase: of cells with DNA content = 2 n or >2 n
[11] = Homo sapiens, A2780, read-out: IC50 (nM) A2780
[12] = Homo sapiens, K562, MTT, read-out: K562 IC50
[13] = Homo sapiens, K562, Table 22, read-out: MTT (K582) IC50

Row | SMILES | IC50 [1, 11] | IC50 ([2]; A2780 ADR) | IC50 [3] | Colchicine displacement protein:drug 1:10 (with esterase) [4] | IC50 ([1]; read-out: IC50 (nM) A2780) | IC50 [2] | IC50 ([1]; Homo sapiens, A2780, read-out: A2780 IC50) | IC50 [5] | IC50 [6] | IC50 [7, 12] | IC50 [8] | IC50 [9] | % of cells with DNA content <2 n [10] | % of cells in G0–G1 [10] | % of cells in G2-M [10] | % of cells in S phase [10] | IC50 ([7]; MTT, read-out: K562 IC50) | IC50 [7, 13]
1 | COc1ccc(/C=C\c2cc(OC)c(OC)c(OC)c2)cc1OC(=O)[C@@H](CCSC)NC(=O)OC(C)(C)C [Compound 42] | 2.9 nM | 2.9 nM | 3.5 µM | 2% | – | – | – | – | – | – | – | – | – | – | – | – | – | –
2 | COc1ccc(/C=C\c2cc(OC)c(OC)c(OC)c2)cc1OC(=O)[C@@H](Cc1c[nH]c2ccccc12)NC(=O)OC(C)(C)C [Compound 43] | 3.3 nM | 3.8 nM | 3 µM | 2% | – | – | – | – | – | – | – | – | – | – | – | – | – | –
3 | COc1ccc(/C=C\c2cc(OC)c(OC)c(OC)c2)cc1OC(=O)C(Cc1ccc(O)cc1)NC(=O)OC(C)(C)C (stereo not shown) [Compound 44] | – | – | – | – | 4.5 nM | 6.4 nM | – | – | – | – | – | – | – | – | – | – | – | –
4 | COc1cc(C=Cc2ccc(N(C)C)cc2)cc(OC)c1OC [Compound 97-65] | – | – | 100 µM | – | – | – | 95 nM | 0.18 µM | 0.35 µM | – | – | – | – | – | – | – | – | –
5 | COc1ccc(/C=C\c2cc(C)c(C)c(C)c2)cc1 [Compound 117] | – | – | – | – | – | – | – | – | > 1 µM | 0.31 µM | 0.65 µM | > 25 µM | 15% | 3% | 87% | 10% | – | –
6 | COc1ccc(/C=C\c2cc(C)c(C)c(C)c2)cc1F [Compound 120] | – | – | – | – | – | – | – | – | 0.46 µM | 0.14 µM | 0.7 µM | 10 µM | 23% | 6% | 77% | 17% | – | –
7 | COc1ccc(/C=C\c2cc(C)c(C)c(C)c2)cc1O [Compound 133] | – | – | – | – | – | – | – | – | 0.05 µM | – | 0.12 µM | 10 µM | 6% | 3% | 91% | 6% | 0.02 µM | –
8 | COc1ccc(C=C(C)c2cc(OC)c(OC)c(OC)c2)cc1O [Compound 210] | – | – | – | – | – | – | – | – | 0.09 µM | 0.04 µM | 0.13 µM | 6 µM | 23% | 5% | 73% | 22% | – | 0.04 µM
9 | COc1ccc(C=C(C)c2cc(OC)c(OC)c(OC)c2)cc1 [Compound 213] | – | – | – | – | – | – | – | – | 0.35 µM | – | 1.3 µM | > 25 µM | 23% | 5% | 73% | 21% | – | 0.1 µM
10 | CCC(=Cc1ccc(OC)c(O)c1)c1cc(OC)c(OC)c(OC)c1 [Compound 219] | – | – | – | – | – | – | – | – | 0.22 µM | – | 0.13 µM | > 25 µM | 24% | 7% | 74% | 19% | – | 0.12 µM
11 | CCOc1cc(C=Cc2ccc(OC)c(F)c2)cc(OCC)c1OCC [Compound 251] | – | – | – | – | – | – | – | – | 0.19 µM | 0.044 µM | 1.25 µM | > 25 µM | 24% | 7% | 75% | 18% | – | –
12 | CCOc1cc(C=Cc2ccc(OC)c(O)c2)cc(OCC)c1OCC [Compound 253] | – | – | – | – | – | – | – | – | 0.05 µM | 0.018 µM | 0.5 µM | 15.5 µM | 4% | 3% | 92% | 6% | – | –
